According to PMC10657444, “Design and evaluation of tadpole-like conformational antimicrobial peptides” (Communications Biology, 2023):
Converted amounts (≈) assume the structure as drawn. Read-outs that look alike come from different tables or passages of the source.

Tested on: K. pneumoniae ATCC 700603
Experiment: microbe, parasite or virus in culture
Format: cell-based, Klebsiella pneumoniae
Conditions: for MIC: Klebsiella pneumoniae
Method: MRSA USA 300 and K. pneumoniae ATCC 700603 were employed to assess the development of resistance. From inoculated microtiter panels, an aliquot of the well with the highest concentration permitting growth was taken and back diluted in fresh media to a turbidity of a 0.5 McFarland standard. This suspension was then further diluted and used to inoculate a fresh MIC panel resulting in a final concentration of 5 × 10^6 CFU/mL. Panels were incubated according to CLSI guidelines (M07, 11th edition, 2018), MICs were recorded and the next inoculum was prepared from the well containing the highest concentration of drug that allowed growth in identical fashion as described above.

`O=C(O)c1cn(C2CC2)c2cc(N3CCNCC3)c(F)cc2c1=O` [ciprofloxacin, reference compound] showed an MIC (ATCC700603, 0 h, read-out: Concentration (MIC in drug resistance assay), K. pneumoniae ATCC 700603, day 0) of 0.25 µg/mL (≈ 0.754 µM), an MIC (ATCC700603, 24 h, read-out: Concentration (MIC in drug resistance assay), K. pneumoniae ATCC 700603, day 1) of 0.5 µg/mL (≈ 1.51 µM) and an MIC (ATCC700603, 48 h, read-out: Concentration (MIC in drug resistance assay), K. pneumoniae ATCC 700603, day 2) of 1 µg/mL (≈ 3.02 µM). It also gave an MIC (ATCC700603, 72 h, read-out: Concentration (MIC in drug resistance assay), K. pneumoniae ATCC 700603, day 3) of 0.5 µg/mL (≈ 1.51 µM), an MIC (ATCC700603, 96 h, read-out: Concentration (MIC in drug resistance assay), K. pneumoniae ATCC 700603, day 4) of 1 µg/mL (≈ 3.02 µM) and an MIC (ATCC700603, 120 h, read-out: Concentration (MIC in drug resistance assay), K. pneumoniae ATCC 700603, day 5) of 0.5 µg/mL (≈ 1.51 µM). The MIC (ATCC700603, 144 h, read-out: Concentration (MIC in drug resistance assay), K. pneumoniae ATCC 700603, day 6) was 1 µg/mL (≈ 3.02 µM), the MIC (ATCC700603, 168 h, read-out: Concentration (MIC in drug resistance assay), K. pneumoniae ATCC 700603, day 7) was 1 µg/mL (≈ 3.02 µM) and the MIC (ATCC700603, 192 h, read-out: Concentration (MIC in drug resistance assay), K. pneumoniae ATCC 700603, day 8) was 2 µg/mL (≈ 6.04 µM). It also gave an MIC (ATCC700603, 216 h, read-out: Concentration (MIC in drug resistance assay), K. pneumoniae ATCC 700603, day 9) of 1 µg/mL (≈ 3.02 µM), an MIC (ATCC700603, 240 h, read-out: Concentration (MIC in drug resistance assay), K. pneumoniae ATCC 700603, day 10) of 1 µg/mL (≈ 3.02 µM) and an MIC (ATCC700603, 264 h, read-out: Concentration (MIC in drug resistance assay), K. pneumoniae ATCC 700603, day 11) of 2 µg/mL (≈ 6.04 µM). For the same compound, the MIC (ATCC700603, 288 h, read-out: Concentration (MIC in drug resistance assay), K. pneumoniae ATCC 700603, day 12) was 2 µg/mL (≈ 6.04 µM), the MIC (ATCC700603, 312 h, read-out: Concentration (MIC in drug resistance assay), K. pneumoniae ATCC 700603, day 13) was 2 µg/mL (≈ 6.04 µM) and the MIC (ATCC700603, 336 h, read-out: Concentration (MIC in drug resistance assay), K. pneumoniae ATCC 700603, day 14) was 4 µg/mL (≈ 12.1 µM). For the same compound, the MIC (ATCC700603, 360 h, read-out: Concentration (MIC in drug resistance assay), K. pneumoniae ATCC 700603, day 15) was 4 µg/mL (≈ 12.1 µM), the MIC (ATCC700603, 384 h, read-out: Concentration (MIC in drug resistance assay), K. pneumoniae ATCC 700603, day 16) was 4 µg/mL (≈ 12.1 µM) and the MIC (ATCC700603, 408 h, read-out: Concentration (MIC in drug resistance assay), K. pneumoniae ATCC 700603, day 17) was 4 µg/mL (≈ 12.1 µM). It also gave an MIC (ATCC700603, 432 h, read-out: Concentration (MIC in drug resistance assay), K. pneumoniae ATCC 700603, day 18) of 4 µg/mL (≈ 12.1 µM), an MIC (ATCC700603, 456 h, read-out: Concentration (MIC in drug resistance assay), K. pneumoniae ATCC 700603, day 19) of 4 µg/mL (≈ 12.1 µM) and an MIC (ATCC700603, 480 h, read-out: Concentration (MIC in drug resistance assay), K. pneumoniae ATCC 700603, day 20) of 8 µg/mL (≈ 24.1 µM). The MIC (ATCC700603, 504 h, read-out: Concentration (MIC in drug resistance assay), K. pneumoniae ATCC 700603, day 21) was 4 µg/mL (≈ 12.1 µM), the MIC (ATCC700603, 528 h, read-out: Concentration (MIC in drug resistance assay), K. pneumoniae ATCC 700603, day 22) was 4 µg/mL (≈ 12.1 µM) and the MIC (ATCC700603, 552 h, read-out: Concentration (MIC in drug resistance assay), K. pneumoniae ATCC 700603, day 23) was 4 µg/mL (≈ 12.1 µM). It also gave an MIC (ATCC700603, 576 h, read-out: Concentration (MIC in drug resistance assay), K. pneumoniae ATCC 700603, day 24) of 4 µg/mL (≈ 12.1 µM), an MIC (ATCC700603, 600 h, read-out: Concentration (MIC in drug resistance assay), K. pneumoniae ATCC 700603, day 25) of 4 µg/mL (≈ 12.1 µM) and an MIC (ATCC700603, 624 h, read-out: Concentration (MIC in drug resistance assay), K. pneumoniae ATCC 700603, day 26) of 8 µg/mL (≈ 24.1 µM). The MIC (ATCC700603, 648 h, read-out: Concentration (MIC in drug resistance assay), K. pneumoniae ATCC 700603, day 27) was 8 µg/mL (≈ 24.1 µM), the MIC (ATCC700603, 672 h, read-out: Concentration (MIC in drug resistance assay), K. pneumoniae ATCC 700603, day 28) was 8 µg/mL (≈ 24.1 µM) and the MIC (ATCC700603, 696 h, read-out: Concentration (MIC in drug resistance assay), K. pneumoniae ATCC 700603, day 29) was 8 µg/mL (≈ 24.1 µM). The MIC (ATCC700603, read-out: Concentration (MIC in drug resistance assay), K. pneumoniae ATCC 700603, day 30) was 8 µg/mL (≈ 24.1 µM), the MIC (ATCC700603, read-out: Concentration (MIC in drug resistance assay), K. pneumoniae ATCC 700603, day 31) was 8 µg/mL (≈ 24.1 µM) and the MIC (ATCC700603, read-out: Concentration (MIC in drug resistance assay), K. pneumoniae ATCC 700603, day 32) was 8 µg/mL (≈ 24.1 µM). It also gave an MIC (ATCC700603, read-out: Concentration (MIC in drug resistance assay), K. pneumoniae ATCC 700603, day 33) of 8 µg/mL (≈ 24.1 µM), an MIC (ATCC700603, read-out: Concentration (MIC in drug resistance assay), K. pneumoniae ATCC 700603, day 34) of 8 µg/mL (≈ 24.1 µM) and an MIC (ATCC700603, read-out: Concentration (MIC in drug resistance assay), K. pneumoniae ATCC 700603, day 35) of 16 µg/mL (≈ 48.3 µM). It also gave an MIC (ATCC700603, read-out: Concentration (MIC in drug resistance assay), K. pneumoniae ATCC 700603, day 36) of 16 µg/mL (≈ 48.3 µM), an MIC (ATCC700603, read-out: Concentration (MIC in drug resistance assay), K. pneumoniae ATCC 700603, day 37) of 16 µg/mL (≈ 48.3 µM) and an MIC (ATCC700603, read-out: Concentration (MIC in drug resistance assay), K. pneumoniae ATCC 700603, day 38) of 16 µg/mL (≈ 48.3 µM). For the same compound, the MIC (ATCC700603, read-out: Concentration (MIC in drug resistance assay), K. pneumoniae ATCC 700603, day 39) was 16 µg/mL (≈ 48.3 µM), the MIC (ATCC700603, read-out: Concentration (MIC in drug resistance assay), K. pneumoniae ATCC 700603, day 40) was 16 µg/mL (≈ 48.3 µM) and the “increase in MIC after 40 passages” value (serial passage at sub-MIC) was 64 fold.
